The values that follow come from patent publication US7635722B1, “Chemical induced intracellular hyperthermia” (priority 1998, dated 2009).

Experiment [1] concerns chronically HIV infected HUT-78 cells. The experiment can be described thus: in vitro inactivation of chronically HIV infected cells. It is filed as cell-based. Particulars: varying concentrations of DNP (FIG. 16). From the text: Clinical assessment and treatment evaluation: HIV and HIV-infected T cells are known to be more sensitive to killing by heat than uninfected lymphocytes. Susceptibility to heat killing is enhanced with increased oxygen free radical production. Acute and chronically infected cells have decreased levels of manganous superoxide dismutase (MnSOD) activity. MnSOD is located exclusively in mitochondria. Mathematical modeling of human HIV production and CD4+ T cell turnover predicts that reducing both free virus and actively infected cells by a minimum of 40% with 1 hour of 42° C. therapeutic hyperthermia every third day will promote recovery of the uninfected T-cell population. Human HIV studies with extracorporeal hyperthermia of 41-42° C. have reported isolated cases of extended patient survival, elimination of detectable virus, and improvement of Kaposi's sarcoma lesions. DNP is known to generate intracellular hyperthermia and oxygen free radicals from the level of the inner mitochondrial membrane. Studies on in vitro inactivation of chronically HIV infected HUT-78 cells by various concentrations of DNP are graphically represented in FIG. 16.

In experiment [2] the test system is arterial catheter balloon injury. The experiment can be described thus: arterial catheter balloon injury after DNP pretreatment. Particulars: rats pretreated with DNP induced hyperthermia (FIG. 21). It is filed as in vivo, Sprague-Dawley rats. The source says: (§1) This method of DNP induced preconditioning could be used to decrease intimal thickening and restenosis after angioplasty, improve ischemia/reperfusion injury in organ and tissue transplantation, and improve surgical outcome of procedures that require temporary or prolonged occlusion of arterial blood flow.

The test system of the next experiment is hepatic ischemic injury. The experiment is described as follows: hepatic ischemic injury by Pringle's maneuver after DNP pretreatment. It is filed as in vivo. Particulars: Pringle's maneuver (FIG. 22).
Description: as §1

Experiment [3] deals with tumors and normal fibroblasts. Particulars: many tumors and normal fibroblasts treated with DNP; cited from earlier work.

Molecules are shown by their SMILES.

As to `O=[N+]([O-])c1ccc(O)c([N+](=O)[O-])c1` [DNP, 2,4-dinitrophenol], the “killing of chronically HIV infected HUT-78 cells” value in experiment [1] was “killing of chronically HIV infected HUT-78 cells”. In addition, the “proliferative arterial catheter balloon injury” value in experiment [2] is listed as “limitation of proliferative arterial catheter balloon injury”. Also, in the experiment on hepatic ischemic injury, the “effect of DNP pretreatment before hepatic ischemic injury” value is listed as “protective effect”. In addition, in experiment [3], the “increase in heat production” value is on record as 83% and the “increase in oxygen consumption” value is 36%.
